Source: ChEMBL document CHEMBL1268836, “Rational design of novel pyrrolidine derivatives as orally active neurokinin-3 receptor antagonists” (Bioorg Med Chem Lett, 2010)
In brackets after ≈: the same amount, converted by molar mass. Activity calls are given as the source filed them. The rule behind the calls is not given here.

Experiments:
Neuromedin-K receptor = target: T1, Neuromedin-K receptor (Homo sapiens, UniProt P29371); test: Displacement of [3H]SR142801 from human neurokinin NK3 receptor expressed in HEK293-EBNA cells; assay type: cell-based
T1 sequence (P29371 whole entry): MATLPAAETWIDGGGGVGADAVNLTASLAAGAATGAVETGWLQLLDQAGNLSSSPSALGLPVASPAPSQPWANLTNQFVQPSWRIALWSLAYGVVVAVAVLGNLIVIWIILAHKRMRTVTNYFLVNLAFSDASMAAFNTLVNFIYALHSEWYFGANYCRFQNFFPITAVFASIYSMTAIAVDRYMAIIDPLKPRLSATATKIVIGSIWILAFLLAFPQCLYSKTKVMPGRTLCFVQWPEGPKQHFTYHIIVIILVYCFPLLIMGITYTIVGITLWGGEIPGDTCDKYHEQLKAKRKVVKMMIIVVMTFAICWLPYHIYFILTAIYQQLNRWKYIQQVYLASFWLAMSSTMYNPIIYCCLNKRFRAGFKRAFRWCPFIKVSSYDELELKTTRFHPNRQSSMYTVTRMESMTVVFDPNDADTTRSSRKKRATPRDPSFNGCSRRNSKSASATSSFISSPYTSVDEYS

Substance-P receptor = Substance-P receptor (Homo sapiens, UniProt P25103); test: Displacement of [3H]substance P from human neurokinin NK1 receptor expressed in CHO cell; assay type: cell-based
Chain of Substance-P receptor (P25103 whole entry): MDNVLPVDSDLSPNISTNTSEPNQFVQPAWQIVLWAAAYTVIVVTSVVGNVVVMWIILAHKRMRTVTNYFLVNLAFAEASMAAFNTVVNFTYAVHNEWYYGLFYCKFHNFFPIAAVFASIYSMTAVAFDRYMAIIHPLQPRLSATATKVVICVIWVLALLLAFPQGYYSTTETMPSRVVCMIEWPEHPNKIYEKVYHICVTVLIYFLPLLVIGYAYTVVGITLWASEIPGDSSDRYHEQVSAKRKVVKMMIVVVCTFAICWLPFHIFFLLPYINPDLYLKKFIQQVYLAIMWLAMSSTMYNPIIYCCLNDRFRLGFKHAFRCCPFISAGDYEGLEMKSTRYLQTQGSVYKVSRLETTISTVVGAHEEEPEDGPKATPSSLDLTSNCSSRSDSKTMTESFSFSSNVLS

[1] = Aqueous solubility of the compound; assay type: physicochemical
[2] = Lipophilicity, log D of the compound; assay type: physicochemical; details: octanol/water
Gerbillinae [3] = test: Antipsychotic activity gerbils assessed as reversal of senktide-induced locomotor activity at 30 mg/kg, po administered before senktide challenge; assay type: functional, organism-based; design: dose 30 mg/kg
[4] = Ratio of drug level in brain to plasma in gerbils at 30 mg/kg, po; assay type: ADME, organism-based; design: dose 30 mg/kg, route oral; details: gerbillinae, read-out: BPR
Gerbillinae [5] = test: Antipsychotic activity gerbils assessed as reversal of senktide-induced locomotor activity at 100 mg/kg, po administered before senktide challenge; assay type: functional, organism-based; design: dose 100 mg/kg

Row | Ki (Neuromedin-K receptor; read-out: Ki) [nM] | Ki (Neuromedin-K receptor; hek293-ebna) | Ki (Substance-P receptor) [nM] | Compound | also measured
1 | 100 |  |  | CN(C(=O)C(C)(C)c1cc(C(F)(F)F)cc(C(F)(F)F)c1)[C@H]1CN(C(=O)N2CCN(S(C)(=O)=O)CC2)C[C@@H]1c1ccccc1 (racemic) | 
2 |  | Not Active |  | CN(CC(C)(C)c1cc(C(F)(F)F)cc(C(F)(F)F)c1)[C@H]1CN(C(=O)N2CCN(S(C)(=O)=O)CC2)C[C@@H]1c1ccccc1 (racemic) | 
3 | 370 |  | 1.4 | CC(=O)N1CCN(C(=O)N2C[C@H](c3ccc(F)cc3)[C@@H](N(C)C(=O)C(C)(C)c3cc(C(F)(F)F)cc(C(F)(F)F)c3)C2)CC1 (racemic) | 
4 | 192 |  | 1.1 | CN(C(=O)C(C)(C)c1cc(C(F)(F)F)cc(C(F)(F)F)c1)[C@H]1CN(C(=O)N(CCO)CCO)C[C@@H]1c1ccc(F)cc1 (racemic) | 
5 |  |  |  | CN(Cc1ccc(C(F)(F)F)c(F)c1)[C@H]1CN(C(=O)N2CCN(S(C)(=O)=O)CC2)C[C@@H]1c1ccc(Cl)c(Cl)c1 (racemic) | solubility [1]: < 1 µg/mL; logD [2]: > 4
6 |  | Not Active |  | CS(=O)(=O)N1CCN(C(=O)N2C[C@H](NC(=O)c3cc(C(F)(F)F)cc(C(F)(F)F)c3)[C@@H](c3ccccc3)C2)CC1 (racemic) | 
7 |  | Not Active |  | CN(C(=O)c1cc(C(F)(F)F)cc(C(F)(F)F)c1)[C@H]1CN(C(=O)N2CCN(S(C)(=O)=O)CC2)C[C@@H]1c1ccccc1 (racemic) | 
8 |  | Not Active |  | CN(C(=O)Cc1cc(C(F)(F)F)cc(C(F)(F)F)c1)[C@H]1CN(C(=O)N2CCN(S(C)(=O)=O)CC2)C[C@@H]1c1ccccc1 (racemic) | 
9 |  | Not Active |  | CN(C(=O)C(C)(C)c1cc(C(F)(F)F)cc(C(F)(F)F)c1)[C@H]1CN(Cc2ccccc2)C[C@@H]1c1ccc(F)cc1 (racemic) | 
10 | 1300 |  |  | CN(Cc1cc(C(F)(F)F)cc(C(F)(F)F)c1)[C@H]1CN(C(=O)N2CCN(S(C)(=O)=O)CC2)C[C@@H]1c1ccccc1 (racemic) | 
11 | 165 |  | 2.1 | CN(C(=O)C(C)(C)c1cc(C(F)(F)F)cc(C(F)(F)F)c1)[C@H]1CN(C(=O)N2CCN(S(C)(=O)=O)CC2)C[C@@H]1c1ccc(F)cc1 (racemic) | 
12 |  | Not Active |  | CN(CCc1cc(C(F)(F)F)cc(C(F)(F)F)c1)[C@H]1CN(C(=O)N2CCN(S(C)(=O)=O)CC2)C[C@@H]1c1ccccc1 (racemic) | 
13 |  |  |  | CN(C)CCN1CCN(C(=O)N2C[C@H](c3ccc(Cl)c(Cl)c3)[C@@H](N(C)Cc3ccc(C(F)(F)F)c(F)c3)C2)CC1 | Activity (Gerbillinae [3]): Active; solubility [1]: 495 µg/mL (≈ 819 µM); logD [2]: 2.9; Kp [4]: 1.6
14 |  |  |  | CC(=O)N(C)C1(c2ccccc2)CCN(CCC[C@]2(c3ccc(Cl)c(Cl)c3)CCCN(C(=O)c3ccccc3)C2)CC1 | Activity (Gerbillinae [5]): Active
15 |  | Not Active | 0.9 | CN(C(=O)C(C)(C)c1cc(C(F)(F)F)cc(C(F)(F)F)c1)[C@H]1CNC[C@@H]1c1ccc(F)cc1 (racemic) | 
16 | 298 |  | 0.6 | CN(C(=O)C(C)(C)c1cc(C(F)(F)F)cc(C(F)(F)F)c1)[C@H]1CN(C(=O)NCCO)C[C@@H]1c1ccc(F)cc1 (racemic) | 
